Tests used:
[1] = target: T1, HiBit-BRG1 fusion protein (Homo sapiens, UniProt P51532); experiment: HiBiT-BRG1 cell-based degradation assay (Nano-Glo HiBiT Lytic Detection, 24 h); settings: HeLa cell line expressing HiBit-BRG1 and LgBit; for Dmax: read-out: BRG1 HiBit Degradation Maximum (%); for DC50: read-out: BRMG1 HiBit Degradation IC50
T1 construct: expressed in transfected cells
Outline: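 Percent degradation derived from lytic HiBiT signal, normalized to DMSO-treated cells and to cells given 2 μM of a known BRM/BRG1 degrader. The HeLa line stably expressed HiBit-BRG1 and LgBit; treatment lasted 24 h at 5000 cells per well.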

HiBit-BRM fusion protein = target: T2, HiBit-BRM fusion protein (Homo sapiens, UniProt P51531); experiment: HiBiT-BRM cell-based degradation assay (Nano-Glo HiBiT Lytic Detection, 24 h); settings: HeLa cell line expressing HiBiT-BRM; for DC50: read-out: BRM HiBit Degradation IC50
T2 construct: expressed in transfected cells
T2 sequence (P51531 whole entry, the tested form may be a part): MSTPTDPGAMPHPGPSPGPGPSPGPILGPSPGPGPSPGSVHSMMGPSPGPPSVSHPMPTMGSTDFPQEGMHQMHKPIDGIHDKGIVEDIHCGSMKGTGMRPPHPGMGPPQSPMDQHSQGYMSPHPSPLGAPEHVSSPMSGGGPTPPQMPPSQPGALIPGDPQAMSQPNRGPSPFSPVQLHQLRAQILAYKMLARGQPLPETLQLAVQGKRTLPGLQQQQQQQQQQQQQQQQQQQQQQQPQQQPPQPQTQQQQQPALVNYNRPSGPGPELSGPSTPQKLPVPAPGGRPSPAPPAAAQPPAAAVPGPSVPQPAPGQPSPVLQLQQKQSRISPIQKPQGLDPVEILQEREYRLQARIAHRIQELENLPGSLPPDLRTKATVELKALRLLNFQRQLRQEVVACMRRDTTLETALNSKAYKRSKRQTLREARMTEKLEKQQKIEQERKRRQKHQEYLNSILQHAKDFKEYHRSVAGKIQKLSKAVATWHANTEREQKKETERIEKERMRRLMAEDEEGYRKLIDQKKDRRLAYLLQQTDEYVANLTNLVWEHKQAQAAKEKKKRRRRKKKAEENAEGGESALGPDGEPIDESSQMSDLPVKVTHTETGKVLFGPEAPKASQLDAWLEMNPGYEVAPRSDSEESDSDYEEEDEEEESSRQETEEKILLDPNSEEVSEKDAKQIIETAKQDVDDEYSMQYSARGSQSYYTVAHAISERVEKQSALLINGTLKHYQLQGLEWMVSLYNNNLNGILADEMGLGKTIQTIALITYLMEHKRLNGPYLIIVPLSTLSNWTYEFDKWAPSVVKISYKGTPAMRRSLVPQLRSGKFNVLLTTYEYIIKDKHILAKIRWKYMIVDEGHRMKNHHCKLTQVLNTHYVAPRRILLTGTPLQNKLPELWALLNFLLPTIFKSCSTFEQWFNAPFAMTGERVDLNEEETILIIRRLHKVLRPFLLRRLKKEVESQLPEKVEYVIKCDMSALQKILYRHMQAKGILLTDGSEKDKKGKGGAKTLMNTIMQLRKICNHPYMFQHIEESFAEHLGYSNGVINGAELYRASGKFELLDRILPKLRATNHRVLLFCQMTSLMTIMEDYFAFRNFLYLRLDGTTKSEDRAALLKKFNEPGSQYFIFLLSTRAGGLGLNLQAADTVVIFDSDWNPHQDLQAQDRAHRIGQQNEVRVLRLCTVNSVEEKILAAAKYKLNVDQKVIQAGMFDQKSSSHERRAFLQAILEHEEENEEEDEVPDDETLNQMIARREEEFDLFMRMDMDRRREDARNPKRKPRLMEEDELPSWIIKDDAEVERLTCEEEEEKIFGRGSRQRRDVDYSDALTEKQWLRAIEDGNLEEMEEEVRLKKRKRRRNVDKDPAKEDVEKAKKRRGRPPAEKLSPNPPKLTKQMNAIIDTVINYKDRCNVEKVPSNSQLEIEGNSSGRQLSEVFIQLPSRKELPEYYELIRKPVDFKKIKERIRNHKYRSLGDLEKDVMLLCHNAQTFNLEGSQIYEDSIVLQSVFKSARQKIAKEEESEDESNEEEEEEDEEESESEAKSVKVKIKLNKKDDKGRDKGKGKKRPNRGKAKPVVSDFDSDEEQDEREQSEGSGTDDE
Outline: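 HeLa cells stably expressing HiBiT-BRM were treated for 24 h with compounds (10-point 3-fold dilutions, 30 μM final top dose, in duplicate). HiBiT was detected by lytic LgBiT complementation luminescence. % degradation was normalized to DMSO (high control) and 2 μM of a reference BRM/BRG1 degrader (low control).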

T1 sequence (P51532 whole entry, the tested form may be a part): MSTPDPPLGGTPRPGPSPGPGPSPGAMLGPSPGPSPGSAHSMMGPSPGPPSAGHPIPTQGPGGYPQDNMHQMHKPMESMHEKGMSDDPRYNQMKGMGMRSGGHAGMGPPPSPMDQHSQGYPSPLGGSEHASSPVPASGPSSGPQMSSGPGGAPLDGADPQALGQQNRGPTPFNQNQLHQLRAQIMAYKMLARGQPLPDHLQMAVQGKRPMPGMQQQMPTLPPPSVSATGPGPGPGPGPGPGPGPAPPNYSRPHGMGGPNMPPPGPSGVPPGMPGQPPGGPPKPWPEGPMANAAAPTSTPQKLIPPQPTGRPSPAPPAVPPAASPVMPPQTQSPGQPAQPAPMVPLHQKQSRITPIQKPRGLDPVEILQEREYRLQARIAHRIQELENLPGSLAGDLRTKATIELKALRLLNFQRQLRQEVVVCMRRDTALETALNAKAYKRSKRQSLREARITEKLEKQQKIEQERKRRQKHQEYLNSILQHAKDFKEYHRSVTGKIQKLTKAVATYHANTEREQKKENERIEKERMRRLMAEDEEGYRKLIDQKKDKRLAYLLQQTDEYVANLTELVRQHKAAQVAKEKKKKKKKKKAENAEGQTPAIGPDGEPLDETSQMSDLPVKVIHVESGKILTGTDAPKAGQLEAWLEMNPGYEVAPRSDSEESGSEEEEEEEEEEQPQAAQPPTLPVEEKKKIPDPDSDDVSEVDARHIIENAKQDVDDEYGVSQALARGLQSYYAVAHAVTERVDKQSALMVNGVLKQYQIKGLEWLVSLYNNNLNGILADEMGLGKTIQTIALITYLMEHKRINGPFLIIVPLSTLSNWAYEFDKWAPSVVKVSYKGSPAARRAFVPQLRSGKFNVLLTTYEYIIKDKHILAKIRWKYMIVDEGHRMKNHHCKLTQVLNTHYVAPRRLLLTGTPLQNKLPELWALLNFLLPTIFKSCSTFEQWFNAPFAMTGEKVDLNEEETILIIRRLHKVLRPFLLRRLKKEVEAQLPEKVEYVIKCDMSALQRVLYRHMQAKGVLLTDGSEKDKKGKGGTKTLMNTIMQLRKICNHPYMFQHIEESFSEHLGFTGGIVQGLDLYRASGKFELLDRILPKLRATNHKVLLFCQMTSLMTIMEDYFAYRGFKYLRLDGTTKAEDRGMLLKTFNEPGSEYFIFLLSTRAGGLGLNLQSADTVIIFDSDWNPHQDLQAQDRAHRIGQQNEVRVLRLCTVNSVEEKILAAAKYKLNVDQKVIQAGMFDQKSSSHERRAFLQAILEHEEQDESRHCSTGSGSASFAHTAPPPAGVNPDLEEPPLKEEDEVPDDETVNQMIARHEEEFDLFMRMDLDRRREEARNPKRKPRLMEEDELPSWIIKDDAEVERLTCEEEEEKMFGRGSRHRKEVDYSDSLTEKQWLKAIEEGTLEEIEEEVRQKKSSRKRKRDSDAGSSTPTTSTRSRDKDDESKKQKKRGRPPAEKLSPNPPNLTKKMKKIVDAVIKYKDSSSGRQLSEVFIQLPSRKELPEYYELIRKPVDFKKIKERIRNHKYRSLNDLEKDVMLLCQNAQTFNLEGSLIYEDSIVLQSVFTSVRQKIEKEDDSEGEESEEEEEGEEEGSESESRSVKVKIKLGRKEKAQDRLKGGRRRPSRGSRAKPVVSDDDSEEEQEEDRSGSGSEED

**Q.** Which results are given for Cc1ncsc1-c1ccc([C@H](C)NC(=O)[C@@H]2C[C@@H](O)CN2C(=O)[C@@H](c2cc(OCC(=O)N3CCc4[nH]c5nnc(-c6ccccc6O)cc5c4C3)no2)C(C)C)cc1 (racemic) [Compound 194, (2S,4R)-4-hydroxy-1-((R)-2-(3-(2-(3-(2-hydroxyphenyl)-5,7,8,9-tetrahydro-6H-pyrido[3′,4′:4,5]pyrrolo[2,3-c]pyridazin-6-yl)-2-oxoethoxy)isoxazol-5-yl)-3-methylbutanoyl)-N-((S)-1-(4-(4-methylthiazol-5-yl)phenyl)ethyl)pyrrolidine-2-carboxamide]?
**A.** Dmax [1]: < 50%; BRM HiBit Degradation Maximum (%) (HiBit-BRM fusion protein): C (“C” indicates maximum degradation < 50%)

**Q.** What does the source list for Cc1ncsc1-c1ccc([C@H](C)NC(=O)[C@@H]2C[C@@H](O)CN2C(=O)[C@@H](c2cc(-c3cnc(N4CCc5[nH]c6nnc(-c7ccccc7O)cc6c5C4)nc3)no2)C(C)C)cc1 (single isomer, unassigned) [Compound 85]?
**A.** Dmax [1]: > 75%; DC50 [1]: > 100 nM; BRM HiBit Degradation Maximum (%) (HiBit-BRM fusion protein): A (“A” indicates maximum degradation ≥ 75%); DC50 (HiBit-BRM fusion protein): > 10 nM

**Q.** What does the source list for Cc1ncsc1-c1ccc([C@H](C)NC(=O)[C@@H]2C[C@@H](O)CN2C(=O)[C@@H](c2cc(OCCNCC34CC(c5cc6cc(-c7ccccc7O)nnc6[nH]5)(C3)C4)no2)C(C)C)cc1 (racemic) [Compound 213, (2S,4R)-4-hydroxy-1-((R)-2-(3-(2-(((3-(3-(2-hydroxyphenyl)-7H-pyrrolo[2,3-c]pyridazin-6-yl)bicyclo[1.1.1]pentan-1-yl)methyl)amino)ethoxy)isoxazol-5-yl)-3-methylbutanoyl)-N-((S)-1-(4-(4-methylthiazol-5-yl)phenyl)ethyl)pyrrolidine-2-carboxamide]?
**A.** Dmax [1]: > 75%; DC50 [1]: > 100 nM; BRM HiBit Degradation Maximum (%) (HiBit-BRM fusion protein): A (“A” indicates maximum degradation ≥ 75%); DC50 (HiBit-BRM fusion protein): > 10 nM

**Q.** Which results are given for Cc1ncsc1-c1ccc(CNC(=O)[C@@H]2C[C@@H](O)CN2C(=O)[C@@H](NC(=O)CCCCCCCCCCCCCCCCC(=O)N2CC(c3c[nH]c4nnc(-c5ccccc5O)cc34)C2)C(C)(C)C)cc1 [Compound 38, (2S,4R)-4-hydroxy-1-((S)-2-(18-(3-(3-(2-hydroxyphenyl)-7H-pyrrolo[2,3-c]pyridazin-5-yl)azetidin-1-yl)-18-oxooctadecanamido)-3,3-dimethylbutanoyl)-N-(4-(4-methylthiazol-5-yl)benzyl)pyrrolidine-2-carboxamide]?
**A.** Dmax [1]: < 50%; BRM HiBit Degradation Maximum (%) (HiBit-BRM fusion protein): C (“C” indicates maximum degradation < 50%)

**Q.** What does the source list for Cc1ncsc1-c1ccc(CNC(=O)[C@@H]2C[C@@H](O)CN2C(=O)[C@@H](NC(=O)CCCCC(=O)N[C@H]2CCc3[nH]c4nnc(-c5ccccc5O)cc4c3C2)C(C)(C)C)cc1 (relative stereo) [Compound 175, N1-((S)-1-((2S,4R)-4-hydroxy-2-((4-(4-methylthiazol-5-yl)benzyl)carbamoyl)pyrrolidin-1-yl)-3,3-dimethyl-1-oxobutan-2-yl)-N6-((S)-3-(2-hydroxyphenyl)-6,7,8,9-tetrahydro-5H-pyridazino[3,4-b]indol-6-yl)adipamide]?
**A.** Dmax [1]: < 50%; BRM HiBit Degradation Maximum (%) (HiBit-BRM fusion protein): A (“A” indicates maximum degradation ≥ 75%); DC50 (HiBit-BRM fusion protein): > 1000 nM

**Q.** With Cc1ncsc1-c1ccc([C@H](C)NC(=O)[C@@H]2C[C@@H](O)CN2C(=O)C(c2cc(OCC(=O)N[C@]3(C(=O)O)CCc4[nH]c5nnc(-c6ccccc6O)cc5c4C3)no2)C(C)C)cc1 (single isomer, unassigned) [Compound 89] as the molecule, how does the Dmax [1] read?
**A.** < 50%

**Q.** What about the “BRM HiBit Degradation Maximum (%)” value (HiBit-BRM fusion protein) of the same molecule?
**A.** C (“C” indicates maximum degradation < 50%)

**Q.** With Cc1ncsc1-c1ccc([C@H](C)NC(=O)[C@@H]2C[C@@H](O)CN2C(=O)[C@@H](c2cc(OCCN(C)CCN3CC(c4cc5cc(-c6ccccc6O)nnc5[nH]4)C3)no2)C(C)C)cc1 (racemic) [Compound 59, (2S,4R)-4-hydroxy-1-((R)-2-(3-(2-((2-(3-(3-(2-hydroxyphenyl)-7H-pyrrolo[2,3-c]pyridazin-6-yl)azetidin-1-yl)ethyl)(methyl)amino)ethoxy)isoxazol-5-yl)-3-methylbutanoyl)-N-((S)-1-(4-(4-methylthiazol-5-yl)phenyl)ethyl)pyrrolidine-2-carboxamide] as the molecule, how does the Dmax [1] read?
**A.** < 50%

**Q.** What about the “BRM HiBit Degradation Maximum (%)” value (HiBit-BRM fusion protein) of the same molecule?
**A.** B (“B” indicates maximum degradation ≥ 50%)

**Q.** What about the DC50 (HiBit-BRM fusion protein) of the same molecule?
**A.** > 100 nM

**Q.** Cc1ncsc1-c1ccc([C@H](C)NC(=O)[C@@H]2C[C@@H](O)CN2C(=O)[C@@H](NC(=O)CCCCCCCCC(=O)N2CC(c3cc4cc(-c5ccccc5O)nnc4[nH]3)C2)C(C)(C)C)cc1 [Compound 1, (2S,4R)-4-hydroxy-1-((S)-2-(10-(3-(3-(2-hydroxyphenyl)-7H-pyrrolo[2,3-c]pyridazin-6-yl)azetidin-1-yl)-10-oxodecanamido)-3,3-dimethylbutanoyl)-N—((S)-1-(4-(4-methylthiazol-5-yl)phenyl)ethyl)pyrrolidine-2-carboxamide] was tested. Which Dmax [1] did it give?
**A.** < 50%

**Q.** And the “BRM HiBit Degradation Maximum (%)” value (HiBit-BRM fusion protein)?
**A.** A (“A” indicates maximum degradation ≥ 75%)

**Q.** And the DC50 (HiBit-BRM fusion protein)?
**A.** > 100 nM

**Q.** What does the source list for Cc1ncsc1-c1ccc([C@H](C)NC(=O)[C@@H]2C[C@@H](O)CN2C(=O)[C@H](c2cc(CN3CCc4[nH]c5nnc(-c6ccccc6O)cc5c4C3)no2)C(C)C)cc1 (single isomer, unassigned) [Compound 135]?
**A.** Dmax [1]: < 50%; BRM HiBit Degradation Maximum (%) (HiBit-BRM fusion protein): C (“C” indicates maximum degradation < 50%)

**Q.** Which results are given for Cc1ncsc1-c1ccc([C@H](C)NC(=O)[C@@H]2C[C@@H](O)CN2C(=O)[C@@H](c2cc(N3C[C@H]4C[C@@H]3CN4C(=O)[C@H]3C[C@]4(Cc5cc(-c6ccccc6O)nnc5N4)C3)no2)C(C)C)cc1 (racemic) [Compound 76, (2S,4R)-4-hydroxy-1-((R)-2-(3-((1R,4R)-5-((1S,3r)-3′-(2-hydroxyphenyl)-5′,7′-dihydrospiro[cyclobutane-1,6′-pyrrolo[2,3-c]pyridazine]-3-carbonyl)-2,5-diazabicyclo[2.2.1]heptan-2-yl)isoxazol-5-yl)-3-methylbutanoyl)-N-((S)-1-(4-(4-methylthiazol-5-yl)phenyl)ethyl)pyrrolidine-2-carboxamide]?
**A.** Dmax [1]: < 50%; BRM HiBit Degradation Maximum (%) (HiBit-BRM fusion protein): A (“A” indicates maximum degradation ≥ 75%); DC50 (HiBit-BRM fusion protein): > 100 nM

**Q.** Cc1ncsc1-c1ccc([C@H](C)NC(=O)[C@@H]2C[C@@H](O)CN2C(=O)[C@@H](c2cc(OCCN3C[C@@H]4[C@H](C3)[C@H]4c3cc4cc(-c5ccccc5O)nnc4[nH]3)no2)C(C)C)cc1 (racemic) [Compound 308, (2S,4R)-4-hydroxy-1-((R)-2-(3-(2-((1R,5S,6R)-6-(3-(2-hydroxyphenyl)-7H-pyrrolo[2,3-c]pyridazin-6-yl)-3-azabicyclo[3.1.0]hexan-3-yl)ethoxy)isoxazol-5-yl)-3-methylbutanoyl)-N-((S)-1-(4-(4-methylthiazol-5-yl)phenyl)ethyl)pyrrolidine-2-carboxamide] was tested. Which Dmax [1] did it give?
**A.** > 75%

**Q.** And the DC50 [1]?
**A.** > 10 nM

**Q.** What about the “BRM HiBit Degradation Maximum (%)” value (HiBit-BRM fusion protein) of the same molecule?
**A.** A (“A” indicates maximum degradation ≥ 75%)

**Q.** And the DC50 (HiBit-BRM fusion protein)?
**A.** < 10 nM

Reference: patent US20240024488A1, “COMPOUNDS AND USES THEREOF” (Foghorn Therapeutics Inc., priority 2020, published 2024)
